Results taken from patent US8865134B2, “Chewing gum” (Med-Eq AS, priority 2005, dated 2014).

Tested on: amylase enzyme
Test: Amylase inhibition (salivary and intestinal amylase)
Format: biochemical
Conditions: amylase present in saliva and in the gut

- Effect on amylase enzyme: blocks the amylase enzyme
SMILES: O=C(/C=C/c1ccc(O)c(O)c1)O[C@@H]1C[C@](O)(C(=O)O)C[C@@H](O)[C@H]1O [chlorogenic acid]
